Like-named read-outs stand apart in the source and are kept apart here.
Key:
[1] = test system: Lactobacillus delbrueckii STYM1 strain pyruvate oxidase (L. delbrueckii Pox, LDBND_1487), wild type, full-length; assay: Phospholipid activation assay of L. delbrueckii Pox; type: biochemical; conditions: various concentrations; 16:0-18:1 acyl chains
Experimental: (§1) Pyruvate oxidase enzyme or pyruvate:oxygen 2-oxidoreductase (phosphorylating) (EC 1.2.3.3) was derived from Lactobacillus delbrueckii STYM1 strain (16).
Pyruvate oxidase activity was measured as previously described (16). Briefly, 50 mM sodium pyruvate, 15 μM FAD, 300 μM TPP, 0.03% N-ethyl-N-(2-hydroxy-3-sulfopropyl)-m-toluidine (sigma), 0.015% 4-aminoantipyrine (sigma), and 33 μg/mL horseradish peroxidase (Sigma) were combined with purified pox enzyme. After a 10-minute incubation at room temperature, sodium phosphate pH 5.6 was added to 50 mM final concentration to initiate the reaction. The formation of a quinoneimine dye at 25° C. was measured by an increase in absorbance at 550 nm and the specific activity was calculated as described. 1 unit of Pox activity is defined as the production of 1 μmol of hydrogen peroxide per minute and this was converted to μM/min for kinetic analysis.
Phosphotidylethanolamine (16:0-18:1) (Avanti Lipids), Phosphotidylcholine (16:0-18:1) (Avanti Lipids), and Phosphotidylglycerol (16:0-18:1) (Avanti Lipids) dissolved in chloroform were evaporated under a steady stream of argon gas and dried in a vacuum desiccator for 1 hour to evaporate residual chloroform. The phospholipids were resuspended in 20 mM Bis-Tris 150 mM NaCl pH 6 and incubated at 37° C. with shaking at 225 rpm for 30 minutes. The suspension was vortexed for 30 seconds and vortexed immediately prior to each use.
(§2) Phospholipids were added to the pyruvate oxidase assay mixture at various concentrations and enzyme activity was measured as described above. Fold activity was calculated relative to enzyme activity without phospholipid.

[2] = test system: Lactobacillus delbrueckii STYM1 pyruvate oxidase variant Δ32 (C-terminal truncation lacking the last 32 amino acids); assay: Phospholipid activation assay of L. delbrueckii Pox Δ32; type: biochemical; conditions: various PE concentrations
From the text: The C-terminus of E. coli Pox is important for lipid activation of the enzyme (13). To test if the C-terminus was important in the L. delbrueckii Pox, a C-terminal truncation was generated that lacked the last 32 amino acids. The enzyme was purified and tested for its ability to be activated by PE (FIG. 18A). […] This is consistent with the E. coli pox truncation having greater activity partially mimicking lipid activation (20). Furthermore, the Δ32 enzyme was only weakly activated by PE to approximately 2-fold greater than the enzyme without PE compared to an approximately 6-fold activation with the full-length enzyme (FIG. 15B and FIG. 18C).
The PCR product was ligated into the pFLAG-CTC vector (Sigma, St. Louis, MO) using the NdeI and XhoI restriction sites. […] The construct was transformed into LOBSTR E. coli, in which the L. delbrueckii Δ32 Pox was expressed as a C-terminal His6-Pox. […] Protein purity was assessed by SDS-PAGE and Coomassie staining.
Pyruvate oxidase activity was measured as previously described (16). […] The formation of a quinoneimine dye at 25° C. was measured by an increase in absorbance at 550 nm and the specific activity was calculated as described. […]
as §2

[3] = test system: Lactobacillus delbrueckii STYM1 strain pyruvate oxidase (L. delbrueckii Pox, LDBND_1487), wild type, C-terminal His6; assay: Pyruvate oxidase activity assay and kinetic parameters (oxidative coupling, H2O2 production, A550); type: biochemical; conditions: for Km: 25° C.
Experimental: The C-terminal primer encoded a glycine-serine linker followed by a 6-histidine tag and a stop codon. The PCR product was ligated into the pFLAG-CTC vector (Sigma) using the NdeI and XhoI restriction sites and transformed into DH5α E. coli resulting in the plasmid pFLAG-CTC_Pox. The construct was confirmed by PCR and sequencing. pFLAG-CTC_Pox was transformed into LOBSTR E. coli in which Pox was expressed as a C-terminal His6-Pox. A 6 mL starter culture was incubate at 37° C. overnight in LB supplemented with 100 μg/mL of ampicillin. The starter culture was diluted 1:100 into 40 mL of LB supplemented with 100 μg/mL of ampicillin and grown at 37° C. until the OD600 reached 0.4-0.8. The temperature was then shifted to 26° C. and the cells were incubated with 1 mM isopropyl-β-D-thiogalactopyranoside (IPTG) for 20 hours. The cells were harvested by centrifugation at 3,200×g for 10 minutes, resuspended in 1 mL PBS EDTA-free cOmplete protease inhibitor cocktail (Roche), and lysed by sonication on ice, as described above. […] Protein purity was assessed by SDS-PAGE and Coomassie staining.
Pyruvate oxidase activity of recombinant Pox was assessed by an oxidative coupling reaction. […] Immediately upon addition of purified Pox, the formation of a quinoneimine dye was measured by an increase in the absorbance at 550 nm which was recorded every 30 seconds at room temperature. […] Pox activity is assessed by determining the change in absorbance at 550 nm per minute. […] Activity was determined according to the following equation: specific activity=[(ΔA550/min)(dilution factor)(total reaction volume)]/[(36.88)(0.5)(path length)(sample volume)(C)], where the total reaction volume is 1 ml, the millimolar extinction coefficient of quinoneimine dye is 36.88, the factor of 0.5 was determined based on the fact that 1 mol of hydrogen peroxide produces 0.5 mol of quinoneimine dye, the light path length is 1 cm, the sample volume is 0.1 ml, and C is the concentration of undiluted enzyme in mg/ml. […]
Pyruvate oxidase activity was measured as previously described (16). […]

[4] = test system: Lactobacillus delbrueckii STYM1 strain pyruvate oxidase (L. delbrueckii Pox, LDBND_1487), wild type; assay: PE co-sedimentation; type: binding; conditions: 1 mM PE, 50 mM pyruvate, 300 μM TPP, 15 μM FAD, 30 minutes at room temperature
Experimental: as §1
PE was prepared as described above for activation experiments. 3 μg of L. delbrueckii Pox was incubated with 50 mM pyruvate, 300 μM TPP, and 15 μM FAD with either 1 mM PE or no PE for 30 minutes at room temperature. The PE fraction was precipitated by centrifugation at 16,000×g for 20 minutes at 4° C. The supernatant was aspirated as the soluble fraction and the PE pellet was resuspened in an equal amount of buffer. The fractions were visualized by Coomassie staining after SDS-PAGE.

CCCCCCCC/C=C\CCCCCCCC(=O)O[C@H](COC(=O)CCCCCCCCCCCCCCC)COP(=O)([O-])OCC[N+](C)(C)C [PC, Phosphotidylcholine (16:0-18:1)]
catalytic activation by phospholipid (in words) [1]: not PC or PG

CCCCCCCC/C=C\CCCCCCCC(=O)O[C@H](COC(=O)CCCCCCCCCCCCCCC)COP(=O)(O)OCCN [PE, Phosphotidylethanolamine (16:0-18:1)]
fold activity relative to the enzyme without PE [2]: approximately 2 fold | catalytic activation by phospholipid (in words) [1]: catalytically activated specifically by PE | increase in kcat relative to the enzyme in the absence of PE ([3]; 7.2 mM PE vs no PE): approximately 18 fold | co-precipitation with PE [4]: did not co-precipitate with PE

CCCCCCCC/C=C\CCCCCCCC(=O)O[C@H](COC(=O)CCCCCCCCCCCCCCC)COP(=O)(O)OCC(O)CO (some centres unmarked) [PG, Phosphotidylglycerol (16:0-18:1)]
catalytic activation by phospholipid (in words) [1]: not PC or PG

phosphate
Km ([3]; with 7.2 mM PE, 170 nM enzyme, read-out: km for phosphate (with PE)): 1.25 mM | Km ([3]; without PE, 1.76 μM enzyme, pyruvate 50 mM, pH 5.6, read-out: km for phosphate): 8 mM

Source: patent publication US12472213B2, “Strains of Lactobacillus delbrueckii which inhibit Porphyromonas gingivalis” (Trustees of Tufts College, priority 2019, dated 2025)
